Measured values reported in PMC3913610, “Antitumor Activity and Induction of TP53-Dependent Apoptosis toward Ovarian Clear Cell Adenocarcinoma by the Dual PI3K/mTOR Inhibitor DS-7423” (PLoS ONE, 2014).
One block for each compound: values may come before it.

Tests used:
[1] = test system: nine OCCA cell lines; assay: Proliferation (MTT/WST-8) assay, OCCA panel; type: cell-based; conditions: 156 nM, 72 h
Description: (§1) Assays of the suppression of cell proliferation were performed with the Cell Counting Kit-8 using the tetrazolium salt WST-8 [2-(2-methoxy-4-nitrophenyl)-3-(4-nitrophenyl)-5-(2,4-disulfophenyl)-2H-tetrazolium, monosodium salt] (Dojindo, Tokyo, Japan) for the methyl thiazolyl tetrazolium (MTT) assay. […] Proliferation was quantified by monitoring the changes in the absorbance at 450 nm, which were normalized relative to the absorbance of cell cultures treated with DMSO alone.

[2] = test system: cleavage of PARP in OVMANA cells; assay: Cleaved PARP immunoblotting; type: cell-based
Excerpt: (§2) Antibodies to total Akt, phosphorylation of Akt (p-Akt) (Ser473, Thr308), p-GSK3beta (Ser9), total S6, p-S6 (Ser235/236, Ser 240/244), p-4EBP1 (Thr37/46), p-FOXO1 (Thr24), p-FOXO3a (Thr32), p-MDM2 (Ser 166), p-TP53 (Ser15), cleaved-PARP, and PARP (Cell Signaling Technology, Beverly, MA), beta-actin (Sigma-Aldrich, St. Louis, MO), TP53 (Santa Cruz, CA, USA) and p-TP53 (Ser46) (Calbiochem, Billerica, MA) were used for immunoblotting, as recommended by the manufacturers. Signals were detected using BioRAD western blotting systems (BioRAD, Hercules, CA) with the detection reagents ECL advance and ECL select (GE Healthcare, Piscataway, NJ).

[3] = biological target: Never-In-Mitosis Gene A (NIMA)-related kinase 2 (NEK2) (Homo sapiens, UniProt P51955); assay: Kinase selectivity panel, NEK2; type: biochemical; conditions: NEK2, relevant activity observed
[4] = test system: phosphorylation of AKT, S6, FOXO1/3a in OCCA cells; assay: Immunoblotting of PI3K/mTOR signaling in OCCA cells; type: cell-based
Excerpt: Signals were detected using BioRAD western blotting systems (BioRAD, Hercules, CA) with the detection reagents ECL advance and ECL select (GE Healthcare, Piscataway, NJ).

[5] = biological target: PI3Kγ (Homo sapiens, UniProt P48736); assay: PI3Kγ inhibition; type: biochemical
[6] = biological target: mTOR (Homo sapiens, UniProt P42345); assay: mTOR inhibition; type: biochemical
[7] = biological target: PI3Kβ (Homo sapiens, UniProt P42338); assay: PI3Kβ inhibition; type: biochemical
[8] = test system: OCCA cells; assay: Cell cycle analysis (flow cytometry), OCCA panel; type: cell-based; conditions: 48 h
Description: Cells (5×10^5) were seeded in 60-mm dishes and treated with DS-7423 for 48 h. Floating and adherent cells were collected by trypsinization and washed twice with phosphate buffer saline (PBS). Cells were resuspended in cold 70% ethanol and maintained at 4°C overnight. After being washed twice with PBS, cells were incubated in RNase A (0.25 mg/mL) (Sigma) for 30 min at 37°C, followed by staining with propidium iodide (PI; 50 μg/mL) (Sigma) at 4°C for 30 min in the dark. Cells were then analyzed using flow cytometry (BD FACS Calibur HG, Franklin Lakes, NJ). Cell cycle distribution was analyzed using CELL Quest pro ver. 3.1. […]. All experiments were repeated three times.

[9] = test system: OVISE cells; assay: Proliferation (MTT/WST-8) assay; type: cell-based; conditions: siRNA to TP53, MTT assay
Description: as §1

[10] = test system: p-MDM2, p-TP53 in OVMANA cells; assay: Immunoblotting of p-MDM2 and p-TP53; type: cell-based
Excerpt: as §2

[11] = test system: TOV-21G xenografts; assay: Tumor xenograft in nude mice; type: in vivo
Excerpt: (§3) Specific pathogen-free female nude mice (BALB/cAJcl-nu/nu), 6 weeks old, were purchased from CLEA Japan, Inc (Tokyo, Japan). Subcutaneous xenograft tumors in the mice were established by the injection of a 100-μL suspension containing 5×10^6 cells of the TOV-21, RMG-I, or ES-2 lines in PBS. Tumors were removed after exponential growth, cut into 3-mm pieces, and transplanted subcutaneously into other mice for RMG-I cells. DS-7423 was suspended in 0.5 w/v% Methyl Cellulose 400 solution (Wako Pure Chemical Industries, Ltd.) Oral daily administration of DS-7423 started 8–22 days later, following the injection of the cells (5–6×10^6 cells/0.1 mL). One week after tumor transplantation, mice were assigned randomly to one of the […] treatment regimens: (1) non-treated control, (2) DS-7423 (1.5 mg/kg), (3) DS-7423 (3 mg/kg), and (4) DS-7423 (6 mg/kg). Each treatment group consisted of five mice. DS-7423 was injected orally (p.o.) once a day. Tumor volumes (in mm^3) were calculated by the formula: ([major axis] × [minor axis]^2/2). After the treatment, the tumors were removed and analyzed by western blotting. Tumor weight (wet weight) was measured, and the average weight was calculated for each group.

[12] = test system: RMG-I xenografts; assay: Tumor xenograft in nude mice; type: in vivo
Excerpt: as §3

[13] = biological target: PI3Kδ (Homo sapiens, UniProt O00329); assay: PI3Kδ inhibition; type: biochemical
[14] = biological target: Mixed Lineage Kinase 1 (MLK1) (Homo sapiens, UniProt P80192); assay: Kinase selectivity panel, MLK1; type: biochemical; conditions: MLK1, relevant activity observed
[15] = biological target: 227 kinases; assay: Kinase selectivity panel; type: biochemical; conditions: 227 kinases tested, except MLK1 and NEK2
[16] = test system: ES-2 xenografts; assay: Tumor xenograft in nude mice; type: in vivo
Excerpt: as §3
Supplementary file pone.0087220.s002.pptx: Figure S2 In vivo effect of DS-7423 in nude mice. […] The levels of p-Akt (Thr-308) and p-S6 (Ser-240/244) were assessed. […]

[17] = test system: OVISE cells; assay: Apoptosis by annexin-V FITC/PI staining; type: cell-based
Description: (§4) Cells (5×10^5) were cultured in 60-mm plates for 24 h before treatment with either DMSO (control), and 156 nM DS-7423, or 2,500 nM DS-7423 for 48 h. Cells were trypsinized, washed twice with PBS, and then analyzed after double staining with annexin-V fluorescein isothiocyanate (FITC) (Abcam, Cambridge, MA) and PI. The apoptotic cell population was analyzed using flow cytometry. All experiments were performed three times.
Cells were plated at approximately 30% confluence in 100-mm plates and incubated for 24 h before transfection with small interfering RNA (siRNA) duplexes at the concentrations indicated, using Lipofectamine […] RNAiMAX (Invitrogen, Carlsbad, CA) and Opti-MEM medium (Life Technologies, Grand Island, NY). The siRNAs specific for TP53 were purchased from Invitrogen. A negative control kit was used as a control (Invitrogen, Carlsbad, CA).

[18] = test system: OCCA cell lines; assay: Apoptosis by annexin-V FITC/PI staining, OCCA panel; type: cell-based
Description: as §4

[19] = test system: seven OSA lines; assay: Proliferation (MTT/WST-8) assay, OSA panel; type: cell-based; conditions: four of seven OSA cell lines
Description: as §1

[20] = biological target: PI3Kα (Homo sapiens, UniProt P42336); assay: PI3Kα inhibition; type: biochemical
[21] = test system: TP53-regulated genes in OVMANA and OVISE cells; assay: Semi-quantitative RT-PCR of TP53 target genes; type: cell-based
Excerpt: Total RNAs of these cells were extracted with the RNeasy Mini Kit according to the manufacturer's instructions (QIAGEN, Valencia, CA). cDNAs were synthesized from total RNAs by using the Super Script III First-strand Synthesis SuperMix (Invitrogen, Carlsbad, CA). The exponential phase of the RT-PCR occurred between 15–30 cycles, and these cycles were monitored to allow semi-quantitative comparisons among the cDNAs developed from identical reactions. The primers and conditions for the amplification of p53AIP1, p21, and GAPDH sequences were described previously. The PCR primers for PUMA were 5′-[…]-3′ (forward) and 5′-[…] CTC-3′ (reverse). The primers for p53R2, TIGAR, GLS2, GADD45, 14-3-3 sigma and PAI-1 were described previously [30]–[35]. Each PCR regimen involved a 2-min initial denaturation step (94°C), which was followed by 15–30 cycles at 94°C for 30 s, then at 55°C for 30 s, and finally, at 72°C for 30 s using a Thermal Cycler Gene Atlas instrument (ASTEC, Fukuoka, Japan).

[22] = test system: JHOC-7 cells; assay: Proliferation (MTT/WST-8) assay; type: cell-based; conditions: JHOC-7, 72 h
Description: as §1

[23] = test system: SKOV3 cells; assay: Proliferation (MTT/WST-8) assay; type: cell-based; conditions: Homo sapiens, SK-OV-3; SKOV3, 72 h
Description: as §1

[24] = test system: OVMANA cells; assay: Proliferation (MTT/WST-8) assay; type: cell-based; conditions: 72 h
Description: as §1

[25] = test system: OVTOKO cells; assay: Proliferation (MTT/WST-8) assay; type: cell-based; conditions: 72 h
Description: as §1

[26] = test system: RMG-I cells; assay: Proliferation (MTT/WST-8) assay; type: cell-based; conditions: Homo sapiens, RMG-1, 72 h
Description: as §1

[27] = test system: recurrent OCCA; set-up: method as in PMID 21243393; conditions: six cases, weekly administration, recurrent OCCA patients ref 39; cited from earlier work

Sequence of Never-In-Mitosis Gene A (NIMA)-related kinase 2 (NEK2) (P51955 whole entry, species assumed): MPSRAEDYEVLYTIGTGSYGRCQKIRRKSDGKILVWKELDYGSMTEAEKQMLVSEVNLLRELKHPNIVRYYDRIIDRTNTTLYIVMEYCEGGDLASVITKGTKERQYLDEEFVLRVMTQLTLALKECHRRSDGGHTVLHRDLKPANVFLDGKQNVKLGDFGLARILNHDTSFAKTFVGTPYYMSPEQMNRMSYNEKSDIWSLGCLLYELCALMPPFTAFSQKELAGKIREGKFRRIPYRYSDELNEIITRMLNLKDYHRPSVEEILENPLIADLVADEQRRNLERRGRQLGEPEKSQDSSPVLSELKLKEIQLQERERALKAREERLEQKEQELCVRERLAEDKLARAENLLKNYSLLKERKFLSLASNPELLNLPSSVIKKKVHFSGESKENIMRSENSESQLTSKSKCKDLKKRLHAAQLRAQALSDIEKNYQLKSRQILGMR
Sequence of PI3Kγ (P48736 whole entry): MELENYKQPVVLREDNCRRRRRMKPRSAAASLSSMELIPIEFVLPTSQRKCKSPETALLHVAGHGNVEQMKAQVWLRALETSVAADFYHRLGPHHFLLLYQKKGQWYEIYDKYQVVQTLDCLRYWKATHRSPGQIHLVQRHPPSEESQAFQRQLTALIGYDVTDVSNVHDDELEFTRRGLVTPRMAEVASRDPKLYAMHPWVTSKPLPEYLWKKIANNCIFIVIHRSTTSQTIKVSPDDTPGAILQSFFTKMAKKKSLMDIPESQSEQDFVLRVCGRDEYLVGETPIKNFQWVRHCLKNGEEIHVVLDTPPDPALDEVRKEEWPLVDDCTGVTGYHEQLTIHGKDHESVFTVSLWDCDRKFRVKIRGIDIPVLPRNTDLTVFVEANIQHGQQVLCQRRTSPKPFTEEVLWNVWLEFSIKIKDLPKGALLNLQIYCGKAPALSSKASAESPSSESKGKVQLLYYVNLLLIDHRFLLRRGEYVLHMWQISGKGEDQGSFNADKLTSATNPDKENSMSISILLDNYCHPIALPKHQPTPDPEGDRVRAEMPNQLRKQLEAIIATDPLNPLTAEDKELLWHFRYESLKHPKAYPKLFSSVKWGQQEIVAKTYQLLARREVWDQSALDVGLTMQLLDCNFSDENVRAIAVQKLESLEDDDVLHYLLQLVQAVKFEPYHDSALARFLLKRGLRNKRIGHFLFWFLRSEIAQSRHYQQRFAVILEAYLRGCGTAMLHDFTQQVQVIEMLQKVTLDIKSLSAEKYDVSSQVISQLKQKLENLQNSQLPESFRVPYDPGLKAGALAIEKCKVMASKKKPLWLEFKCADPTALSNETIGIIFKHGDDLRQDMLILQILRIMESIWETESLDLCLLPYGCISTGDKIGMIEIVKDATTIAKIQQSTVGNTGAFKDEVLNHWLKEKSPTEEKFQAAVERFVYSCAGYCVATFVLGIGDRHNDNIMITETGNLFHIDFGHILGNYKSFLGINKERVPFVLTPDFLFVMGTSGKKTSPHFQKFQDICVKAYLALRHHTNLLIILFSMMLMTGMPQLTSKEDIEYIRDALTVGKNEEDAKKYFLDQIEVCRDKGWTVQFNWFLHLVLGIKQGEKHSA
Sequence of PI3Kα (P42336 whole entry): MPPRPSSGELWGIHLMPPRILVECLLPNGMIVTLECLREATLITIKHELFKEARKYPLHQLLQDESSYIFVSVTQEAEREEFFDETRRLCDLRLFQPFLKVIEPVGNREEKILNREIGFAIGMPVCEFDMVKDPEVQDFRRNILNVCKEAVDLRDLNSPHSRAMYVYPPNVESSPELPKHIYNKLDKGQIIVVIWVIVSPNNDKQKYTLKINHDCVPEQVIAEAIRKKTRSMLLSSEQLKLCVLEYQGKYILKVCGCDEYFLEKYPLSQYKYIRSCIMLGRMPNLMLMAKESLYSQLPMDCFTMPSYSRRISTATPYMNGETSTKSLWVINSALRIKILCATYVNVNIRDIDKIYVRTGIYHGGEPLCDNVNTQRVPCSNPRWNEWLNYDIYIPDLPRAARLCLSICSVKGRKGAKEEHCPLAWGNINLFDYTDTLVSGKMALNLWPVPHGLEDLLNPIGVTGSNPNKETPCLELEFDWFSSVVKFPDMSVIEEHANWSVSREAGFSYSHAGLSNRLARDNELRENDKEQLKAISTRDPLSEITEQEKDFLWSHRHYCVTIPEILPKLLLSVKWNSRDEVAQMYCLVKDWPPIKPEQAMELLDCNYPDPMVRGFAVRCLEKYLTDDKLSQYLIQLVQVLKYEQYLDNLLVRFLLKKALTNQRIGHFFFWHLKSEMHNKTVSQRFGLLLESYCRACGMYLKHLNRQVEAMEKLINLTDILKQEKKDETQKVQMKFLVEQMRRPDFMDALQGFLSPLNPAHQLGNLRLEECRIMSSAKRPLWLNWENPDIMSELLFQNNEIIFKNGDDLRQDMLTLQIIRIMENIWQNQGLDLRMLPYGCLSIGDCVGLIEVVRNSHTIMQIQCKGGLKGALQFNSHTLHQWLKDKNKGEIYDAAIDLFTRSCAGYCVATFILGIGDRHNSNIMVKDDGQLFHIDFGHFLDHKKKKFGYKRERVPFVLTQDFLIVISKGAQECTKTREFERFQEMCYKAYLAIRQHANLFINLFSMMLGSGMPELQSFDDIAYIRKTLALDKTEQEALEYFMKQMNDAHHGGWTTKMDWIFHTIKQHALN
Sequence of PI3Kα (P27986 whole entry partner): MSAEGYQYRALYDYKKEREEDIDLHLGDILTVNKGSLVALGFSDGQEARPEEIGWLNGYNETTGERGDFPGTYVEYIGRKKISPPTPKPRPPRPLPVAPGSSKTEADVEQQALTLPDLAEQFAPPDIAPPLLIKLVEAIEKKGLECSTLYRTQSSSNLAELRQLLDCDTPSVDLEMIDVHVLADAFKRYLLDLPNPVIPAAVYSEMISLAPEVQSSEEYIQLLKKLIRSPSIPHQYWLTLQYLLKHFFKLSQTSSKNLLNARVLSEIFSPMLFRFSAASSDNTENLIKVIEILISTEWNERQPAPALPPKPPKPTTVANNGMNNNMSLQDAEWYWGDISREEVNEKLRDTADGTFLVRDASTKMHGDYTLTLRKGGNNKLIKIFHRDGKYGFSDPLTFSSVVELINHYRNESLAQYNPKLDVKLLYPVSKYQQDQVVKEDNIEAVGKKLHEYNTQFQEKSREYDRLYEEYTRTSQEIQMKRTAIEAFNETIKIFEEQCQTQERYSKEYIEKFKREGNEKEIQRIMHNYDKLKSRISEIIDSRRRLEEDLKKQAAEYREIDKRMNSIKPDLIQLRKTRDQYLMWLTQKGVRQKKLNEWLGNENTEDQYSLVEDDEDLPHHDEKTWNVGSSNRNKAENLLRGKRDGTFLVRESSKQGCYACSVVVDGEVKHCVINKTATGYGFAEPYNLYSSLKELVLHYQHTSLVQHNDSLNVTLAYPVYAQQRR
Sequence of Mixed Lineage Kinase 1 (MLK1) (P80192 whole entry, species assumed): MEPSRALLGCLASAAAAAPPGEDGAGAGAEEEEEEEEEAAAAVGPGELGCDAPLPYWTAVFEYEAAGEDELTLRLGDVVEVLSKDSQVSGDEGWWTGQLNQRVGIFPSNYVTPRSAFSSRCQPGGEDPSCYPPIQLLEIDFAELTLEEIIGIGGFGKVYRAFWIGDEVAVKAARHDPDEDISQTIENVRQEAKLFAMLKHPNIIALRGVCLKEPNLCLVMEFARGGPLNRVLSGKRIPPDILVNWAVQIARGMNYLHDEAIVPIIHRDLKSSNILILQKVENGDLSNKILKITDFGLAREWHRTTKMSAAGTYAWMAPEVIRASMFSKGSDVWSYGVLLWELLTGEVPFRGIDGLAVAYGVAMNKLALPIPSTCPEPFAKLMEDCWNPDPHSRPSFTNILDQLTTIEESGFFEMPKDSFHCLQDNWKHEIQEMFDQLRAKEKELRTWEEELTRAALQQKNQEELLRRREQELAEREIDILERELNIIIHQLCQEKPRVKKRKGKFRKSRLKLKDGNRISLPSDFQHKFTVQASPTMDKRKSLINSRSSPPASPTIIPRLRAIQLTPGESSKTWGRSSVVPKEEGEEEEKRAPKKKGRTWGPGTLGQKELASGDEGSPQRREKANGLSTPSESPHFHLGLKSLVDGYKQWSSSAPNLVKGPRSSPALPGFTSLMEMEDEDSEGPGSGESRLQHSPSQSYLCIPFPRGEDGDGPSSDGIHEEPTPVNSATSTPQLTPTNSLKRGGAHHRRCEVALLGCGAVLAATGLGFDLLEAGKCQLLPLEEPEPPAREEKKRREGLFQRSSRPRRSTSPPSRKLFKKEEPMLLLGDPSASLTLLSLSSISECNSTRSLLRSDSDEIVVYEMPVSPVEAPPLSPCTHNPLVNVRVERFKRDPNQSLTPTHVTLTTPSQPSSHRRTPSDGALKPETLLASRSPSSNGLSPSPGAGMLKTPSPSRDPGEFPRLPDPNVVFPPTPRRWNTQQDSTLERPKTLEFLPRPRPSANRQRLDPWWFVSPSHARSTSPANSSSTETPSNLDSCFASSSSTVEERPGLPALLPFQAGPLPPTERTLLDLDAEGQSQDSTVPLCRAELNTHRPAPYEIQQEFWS

Compound: CC(=O)N1CCN(c2nc3c(N4CCOCC4)nc(-c4cnc(N)nc4)nc3n2CC(F)(F)F)C[C@H]1C [DS-7423]
inhibition of cell growth [1]: 70%–97%
concentration at which induction of cleaved-PARP was observed ([2]; 4 h, dose-dependent up to 2,500 nM): 39 nM
time to cleavage of PARP ([2]; OVMANA cells without mutations in TP53, 156 nM): ≤ 2 h
IC50 [3]: < 200 nM
doses suppressing phosphorylation of AKT (Thr308 and Ser473) and S6 (Ser235/236 and Ser240/244) ([4]; these doses and higher, OCCA cells): 39 to 156 nM
IC50 [5]: 249 nM
IC50 [6]: 34.9 nM
IC50 [7]: 1140 nM
size of the S-phase population ([8]; OCCA cells, change weak in ES-2): decreased
sizes of sub-G1 populations ([8]; six of the nine cell lines): increased in a dose-dependent manner
anti-proliferative effect when combined with knockdown of TP53 [9]: significantly reduced
doses clearly inducing p-TP53 (Ser46), not p-TP53 (Ser15) ([10]; OVMANA cells): 156–2,500 nM
level of p-MDM2 ([10]; dose-dependent): reduced
adverse effects, including body weight loss of more than 10% ([11]; TOV-21G xenograft mice, oral daily 1.5, 3 or 6 mg/kg): No significant adverse effects
levels of p-AKT (Thr308) and p-S6 (Ser240/244) in xenografts ([11]; TOV-21G xenografts, 2 and 6 h after last administration): suppressed
tumor growth of xenografts ([11]; TOV-21G, oral daily 1.5, 3 or 6 mg/kg, dose-dependent): significantly suppressed
adverse effects, including body weight loss of more than 10% ([12]; RMG-I xenograft mice, oral daily 1.5, 3 or 6 mg/kg): No significant adverse effects
levels of p-AKT (Thr308) and p-S6 (Ser240/244) in xenografts ([12]; RMG-I xenografts, 2 and 6 h after last administration): suppressed
tumor growth of xenografts ([12]; RMG-I, oral daily 1.5, 3 or 6 mg/kg, dose-dependent): significantly suppressed
IC50 [13]: 262 nM
IC50 [14]: < 200 nM
Relevant activity (IC50 <200 nM) [15]: not observed
anti-tumor effect compared with TOV-21G and RMG-I xenografts [16]: weaker
estimated tumor volumes compared to the control ([16]; 6 mg/kg daily, totally 8 times): smaller
percentage of apoptotic cells compared with rapamycin ([17]; OVISE cells): significantly higher
apoptotic cell death after knockdown of TP53 ([17]; OVISE, TP53 siRNA, 156 or 2,500 nM, 48 h): rescued
apoptosis (annexin-V FITC/PI) ([18]; 156 nM, 48 h, five of the six cell lines that lacked mutations in TP53): 4–12%
apoptosis (annexin-V FITC/PI) ([18]; 2,500 nM, 48 h, five cell lines without TP53 mutations): 10–16%
ratio of apoptotic cells ([18]; even at high concentrations): less than 20%
apoptosis (annexin-V FITC/PI) ([18]; three cell lines with TP53 mutations, any of the doses tested): ≤ 5%
IC50 [19]: > 100 nM
IC50 [20]: 15.6 nM
expression of p21 ([21]; 39, 156, and 2,500 nM, 24 h): did not induce
expression of GADD45 ([21]; OVISE cells): significantly induced
doses inducing expression of p53AIP1 and PUMA ([21]; OVMANA and OVISE cells, 24 h): ≥ 39 nM
expression of TIGAR ([21]; OVMANA cells): decreased

IC50 [23]: > 2560 nM
Compound: CO[C@H]1C[C@@H]2CC[C@@H](C)[C@@](O)(O2)C(=O)C(=O)N2CCCC[C@H]2C(=O)O[C@H]([C@H](C)C[C@@H]2CC[C@@H](O)[C@H](OC)C2)CC(=O)[C@H](C)/C=C(\C)[C@@H](O)[C@@H](OC)C(=O)[C@H](C)C[C@H](C)/C=C/C=C/C=C/1C [rapamycin]
levels of p-FOXO3a and p-FOXO1 ([4]; 2,500 nM, OVISE): increased
suppression of p-Akt ([4]; any dose (0 to 2,500 nM), OVISE): did not suppress
IC50 [22]: > 2560 nM
IC50 [24]: > 2560 nM
IC50 [25]: > 2560 nM
IC50 [26]: > 2560 nM
apoptotic cell death ([18]; OCCA cells, even at 2,500 nM): ≤ 5%

Compound: CO[C@H]1C[C@@H]2CC[C@@H](C)[C@@](O)(O2)C(=O)C(=O)N2CCCC[C@H]2C(=O)O[C@H]([C@H](C)C[C@@H]2CC[C@@H](OC(=O)C(C)(CO)CO)[C@H](OC)C2)CC(=O)[C@H](C)/C=C(\C)[C@@H](O)[C@@H](OC)C(=O)[C@H](C)C[C@H](C)/C=C/C=C/C=C/1C [temsirolimus]
clinical response [27]: partial response in one patient and stable disease in another patient
